Common to all, as to assay type: functional
Assay [1] has as its system Pseudomonas aeruginosa. Put plainly: Antimicrobial activity against Pseudomonas aeruginosa ATCC 10145 assessed as growth inhibition by broth dilution method.
For assay [2], the system named is Staphylococcus hominis. Nature of the assay: Antimicrobial activity against Staphylococcus hominis ATCC 27844 assessed as growth inhibition by broth dilution method.
The subject of assay [3] is Salmonella typhi. Nature of the assay: Antimicrobial activity against Salmonella enterica subsp. enterica serovar Typhi ATCC 19430 assessed as growth inhibition by broth dilution method.
In assay [4] the test system is Escherichia coli. Put plainly: Antimicrobial activity against Escherichia coli ATCC 25922 assessed as growth inhibition by broth dilution method. In general terms: Broth dilution looks for growth in wells or tubes with falling amounts of substance.
Assay [5] deals with Aspergillus flavus. Nature of the assay: Antimicrobial activity against Aspergillus flavus ATCC 15517 assessed as growth inhibition by broth dilution method.
The subject of assay [6] is Aspergillus fumigatus. Put plainly: Antimicrobial activity against Aspergillus fumigatus assessed as growth inhibition by broth dilution method.
In assay [7] the test system is Bacillus subtilis. Nature of the assay: Antimicrobial activity against Bacillus subtilis ATCC 6633 assessed as growth inhibition by broth dilution method.
Assay [8] concerns Microsporum canis. Put plainly: Antimicrobial activity against Arthroderma otae ATCC 11622 assessed as growth inhibition by broth dilution method.
Assay [9] has as its system Staphylococcus epidermidis. Nature of the assay: Antimicrobial activity against Staphylococcus epidermidis ATCC 12228 assessed as growth inhibition by broth dilution method.
For assay [10], the system named is Candida albicans. Nature of the assay: Antimicrobial activity against Candida albicans ATCC 10231 assessed as growth inhibition by broth dilution method.
Assay [11] has as its system Bacillus cereus. Put plainly: Antimicrobial activity against Bacillus cereus ATCC 11778 assessed as growth inhibition by broth dilution method.
Assay [12] has as its system Proteus vulgaris. Nature of the assay: Antimicrobial activity against Proteus vulgaris ATCC 13315 assessed as growth inhibition by broth dilution method.
For assay [13], the system named is Bacillus pumilus. Put plainly: Antimicrobial activity against Bacillus pumilus ATCC 14884 assessed as growth inhibition by broth dilution method.
For assay [14], the system named is Proteus mirabilis. Put plainly: Antimicrobial activity against Proteus mirabilis ATCC 49565 assessed as growth inhibition by broth dilution method.
Assay [15] has as its system Aspergillus awamori. Nature of the assay: Antimicrobial activity against Aspergillus awamori ATCC 22342 assessed as growth inhibition by broth dilution method.
The test system of assay [16] is Trichophyton longifusum. Nature of the assay: Antimicrobial activity against Trichophyton longifusum ATCC 22397 assessed as growth inhibition by broth dilution method.
The subject of assay [17] is Alternaria alternata. Nature of the assay: Antimicrobial activity against Alternaria alternata ATCC 66868 assessed as growth inhibition by broth dilution method.
Assay [18] deals with Klebsiella pneumoniae. Nature of the assay: Antimicrobial activity against Klebsiella pneumoniae ATCC 13883 assessed as growth inhibition by broth dilution method.
The subject of assay [19] is Micrococcus luteus. Nature of the assay: Antimicrobial activity against Micrococcus luteus ATCC 4698 assessed as growth inhibition by broth dilution method.
The test system of assay [20] is Staphylococcus aureus. Put plainly: Antimicrobial activity against Staphylococcus aureus ATCC 25923 assessed as growth inhibition by broth dilution method.
The subject of assay [21] is Aspergillus niger. Put plainly: Antimicrobial activity against Aspergillus niger ATCC 9142 assessed as growth inhibition by broth dilution method.
In assay [22] the test system is Rhizoctonia solani. Nature of the assay: Antimicrobial activity against Rhizoctonia solani ATCC 76131 assessed as growth inhibition by broth dilution method.
For assay [23], the system named is Trichoderma viride. Put plainly: Antimicrobial activity against Hypocrea rufa ATCC 52440 assessed as growth inhibition by broth dilution method.
The test system of assay [24] is Fusarium solani. Nature of the assay: Antimicrobial activity against Fusarium solani ATCC 38136 assessed as growth inhibition by broth dilution method.

The term MIC denotes the least concentration at which growth counts as inhibited.

Each structure is given as a SMILES string. Values after ≈ are worked out from the molar mass of the structure shown.

Consider `COc1cc(C2C(Cl)C(=O)N2CCN2CCN(C(=O)CCl)CC2)ccc1O` (stereo unspecified), for which the minimum inhibitory concentration (MIC) was determined as 4.68 µg/mL (≈ 11.2 µM) in [1]; 9.37 µg/mL (≈ 22.5 µM) in [2]; 4.68 µg/mL (≈ 11.2 µM) in [3]; 9.37 µg/mL (≈ 22.5 µM) in assay [4]; 9.37 µg/mL (≈ 22.5 µM) in assay [5]; 18.8 µg/mL (≈ 45 µM) in [6]. The MIC in [7] is 9.37 µg/mL (≈ 22.5 µM); in [8], 18.8 µg/mL (≈ 45 µM); in assay [9], 9.37 µg/mL (≈ 22.5 µM); in assay [10], 9.37 µg/mL (≈ 22.5 µM); in assay [11] it was 9.37 µg/mL (≈ 22.5 µM); in assay [12] it was 9.37 µg/mL (≈ 22.5 µM). Further, the MIC is 9.37 µg/mL (≈ 22.5 µM) in [13]; 9.37 µg/mL (≈ 22.5 µM) in assay [14]; 18.8 µg/mL (≈ 45 µM) in assay [15]; 9.37 µg/mL (≈ 22.5 µM) in [16]; 18.8 µg/mL (≈ 45 µM) in assay [17]; 9.37 µg/mL (≈ 22.5 µM) in assay [18]. Further, the MIC was 4.68 µg/mL (≈ 11.2 µM) in assay [19]; 9.37 µg/mL (≈ 22.5 µM) in [20]; 18.8 µg/mL (≈ 45 µM) in assay [21]; 9.37 µg/mL (≈ 22.5 µM) in assay [22]; 18.8 µg/mL (≈ 45 µM) in assay [23]; 18.8 µg/mL (≈ 45 µM) in assay [24].

`COc1ccc(C2C(Cl)C(=O)N2CCN2CCN(C(=O)CCl)CC2)cc1` (stereo unspecified): the MIC in assay [1] was found to be 9.37 µg/mL (≈ 23.4 µM); in [2], 4.68 µg/mL (≈ 11.7 µM); in assay [3] it was 9.37 µg/mL (≈ 23.4 µM); in assay [4], 4.68 µg/mL (≈ 11.7 µM); in [5], 9.37 µg/mL (≈ 23.4 µM); in assay [6], 9.37 µg/mL (≈ 23.4 µM). For the same molecule, the MIC amounted to 9.37 µg/mL (≈ 23.4 µM) in [7]; 18.8 µg/mL (≈ 46.8 µM) in assay [8]; 4.68 µg/mL (≈ 11.7 µM) in [9]; 18.8 µg/mL (≈ 46.8 µM) in assay [10]; 9.37 µg/mL (≈ 23.4 µM) in assay [11]; 9.37 µg/mL (≈ 23.4 µM) in assay [12]. In addition, the MIC in assay [13], in [14], in assay [15], in [16], in assay [17] and in [18] was 9.37 µg/mL (≈ 23.4 µM) in each case. Besides, the MIC in [19] was found to be 9.37 µg/mL (≈ 23.4 µM); in assay [20], 9.37 µg/mL (≈ 23.4 µM); in assay [21] it was 18.8 µg/mL (≈ 46.8 µM); in assay [22], 9.37 µg/mL (≈ 23.4 µM); in assay [23] it was 18.8 µg/mL (≈ 46.8 µM); in [24] it was 18.8 µg/mL (≈ 46.8 µM).

Regarding `O=C(CCl)N1CCN(CCN2C(=O)C(Cl)C2c2ccco2)CC1` (stereo unspecified), the MIC in assay [1] was 150 µg/mL (≈ 416 µM); in assay [2], 75 µg/mL (≈ 208 µM); in [3] it was 150 µg/mL (≈ 416 µM); in [4], 75 µg/mL (≈ 208 µM); in assay [5] it was 300 µg/mL (≈ 833 µM); in assay [6], 300 µg/mL (≈ 833 µM). For the same molecule, the minimal inhibitory concentration (MIC) in assay [7] is 150 µg/mL (≈ 416 µM); in assay [8], 150 µg/mL (≈ 416 µM); in assay [9], 75 µg/mL (≈ 208 µM); in assay [10], 300 µg/mL (≈ 833 µM); in [11], 75 µg/mL (≈ 208 µM); in [12], 75 µg/mL (≈ 208 µM). The minimal inhibitory concentration (MIC) in assay [13] worked out at 75 µg/mL (≈ 208 µM); in [14] it was 150 µg/mL (≈ 416 µM); in assay [15] it was 150 µg/mL (≈ 416 µM); in assay [16], 300 µg/mL (≈ 833 µM); in assay [17] it was 150 µg/mL (≈ 416 µM); in assay [18], 75 µg/mL (≈ 208 µM). Also, the minimal inhibitory concentration (MIC) in assay [19] stood at 150 µg/mL (≈ 416 µM); in assay [20], 150 µg/mL (≈ 416 µM); in assay [21], 150 µg/mL (≈ 416 µM); in [22], 300 µg/mL (≈ 833 µM); in assay [23], 300 µg/mL (≈ 833 µM); in assay [24], 150 µg/mL (≈ 416 µM).

Turning to `O=C(O)c1cn(C2CC2)c2cc(N3CCNCC3)c(F)cc2c1=O` [CIPROFLOXACIN], the MIC in [1], in assay [2], in [3], in [4], in [7] and in assay [9] was 2.34 µg/mL (≈ 7.06 µM) each time. The MIC in assay [11], in assay [12], in [13], in assay [14], in assay [18] and in assay [19] was 2.34 µg/mL (≈ 7.06 µM) in each case. In addition, the MIC in [20] amounted to 2.34 µg/mL (≈ 7.06 µM).

`Clc1ccccc1C(c1ccccc1)(c1ccccc1)n1ccnc1` [CLOTRIMAZOLE]: the minimal inhibitory concentration (MIC) in [5] was 2.34 µg/mL (≈ 6.79 µM); in assay [6] it was 4.68 µg/mL (≈ 13.6 µM); in assay [8] it was 4.68 µg/mL (≈ 13.6 µM); in assay [10], 2.34 µg/mL (≈ 6.79 µM); in [15], 4.68 µg/mL (≈ 13.6 µM); in [16], 4.68 µg/mL (≈ 13.6 µM). Also, the minimum inhibitory concentration (MIC) amounted to 1.17 µg/mL (≈ 3.39 µM) in assay [17]; 2.34 µg/mL (≈ 6.79 µM) in [21]; 2.34 µg/mL (≈ 6.79 µM) in assay [22]; 2.34 µg/mL (≈ 6.79 µM) in assay [23]; 4.68 µg/mL (≈ 13.6 µM) in [24].

Source of the values: ChEMBL document CHEMBL3045546, “Synthesis and antimicrobial screening of 4-thiazolidinone and 2-azetidinone derivatives of piperazine” (2013).
